# Experimental data as given in patent publication US6720339B2, “Certain fused pyrrolecarboxamides; a new class of GABA brain receptor ligands” (Neurogen Corporation, priority 1996, dated 2004).
# Molecular target: GABAa receptor (benzodiazepine receptor)
# Assay: GABAa receptor binding assay (3H-RO15-1788 [3H-Flumazenil] displacement, rat cortical tissue homogenate)
# Conditions: radioligand 0.5 nM 3H-RO15-1788 (3H-Flumazenil), 30 min at 4° C.
# Protocol: The pharmaceutical utility of compounds of this invention are indicated by the following assay for GABAa receptor binding activity.
# Assays are carried out as described in Thomas and Tallman (J. Bio. Chem. 156: 9838-9842, J. Neurosci. 3: 433-440, 1983). Rat cortical tissue is dissected and homogenized in 25 volumes (w/v) of 0.05 M Tris HCl buffer (pH 7.4 at 4° C.). The tissue homogenate is centrifuged in cold (4° C.) at 20,000×g for 20′. The supernatant is decanted and the pellet is rehomogenized in the same volume of buffer and again centrifuged at 20,000×g. The supernantant is decanted and the pellet is frozen at −20° C. overnight. The pellet is then thawed and rehomogenized in 25 volume (orginal wt/vol) of buffer and the procedure is carried out twice. The pellet is finally resuspended in 50 volumes (w/vol of 0.05 M Tris HCl buffer (pH 7.4 at […]).
# Incubations contain […] of tissue homogenate, […] of radioligand 0.5 nM (^3H-RO15-1788 [^3H-Flumazenil] specific activity 80 Ci/mmol), drug or blocker and buffer to a total volume of […]. Incubations are carried for 30 min at 4° C. then are rapidly filtered through GFB filters to separate free and bound ligand. Filters are washed twice with fresh 0.05 M Tris HCl buffer (pH 7.4 at 4° C.) and counted in a liquid scintillation counter. 1.0 mM diazepam is added to some tubes to determine nonspecific binding. Data are collected in triplicate determinations, averaged and % inhabition of total specific binding is calculated. Total Specific Binding=Total−Nonspecific. In some cases, the amounts of unlabeled drugs is varied and total displacement curves of binding are carried out.
row,Ki,Compound
1,0.013 µM,"COc1ccc(NC(=O)c2c[nH]c3c2C(=O)CC(C)(C)C3)cc1 [Compound 3, N-(4-Methoxyphenyl)-4-oxo-6,6-dimethyl-4,5,6,7-tetrahydro-1H-indole-3-carboxamide]"
2,0.001 µM,"CC1CC(=O)c2c(C(=O)Nc3ccccc3)c[nH]c2C1 (stereo not shown) [Compound 4, N-Phenyl-4-oxo-6-methyl-4,5,6,7-tetraydro-1H-indole-3-carboxamide]"
3,0.01 µM,"CC1(C)CC(=O)c2c(C(=O)Nc3ccsc3)c[nH]c2C1 [Compound 7, N-(3-Thienyl)-4-oxo-6,6-dimethyl-4,5,6,7-tetrahydro-1H-indole-3-caboxamide]"
4,0.08 µM,"CC1(C)CC(=O)c2c(C(=O)Nc3ccc4cccnc4n3)c[nH]c2C1 [Compound 8, N-(1,8-Napthyridin-2yl)-4-oxo-6,6-dimethyl-4,5,6,7-tetrahydro-1H-indole-3-carboxamide]"

# Continued, molecule first:
row,Compound,Ki
1,"CC1(C)CC(=O)c2c(C(=O)Nc3ccccc3)c[nH]c2C1 [Compound 1, N-Phenyl-4-oxo-6,6-dimethyl-4,5,6,7-tetrahydro-1H-indole-3-carboxamide]",0.021 µM
2,CC1(C)CC(=O)c2c(C(=O)Nc3ccccc3F)c[nH]c2C1 [Compound 2],0.012 µM
3,"CC1CC(=O)c2c(C(=O)Nc3ccccc3F)c[nH]c2C1 (stereo not shown) [Compound 5, N-(2-Fluorophenyl)-4-oxo-6-methyl-4,5,6,7-tetrahydro-1H-indole-3-carboxamide]",0.0005 µM
4,"COc1ccc(NC(=O)c2c[nH]c3c2C(=O)CC(C)C3)c(F)c1 (stereo not shown) [Compound 6, N-(2-Fluoro-4-methoxyphenyl)-4-oxo-6-methyl-4,5,6,7-tetrahydro-1H-indole-3-carboxamide]",0.001 µM
5,"CC1CC(=O)c2c(C(=O)Nc3ccc4cccnc4n3)c[nH]c2C1 (stereo not shown) [Compound 9, N-(1,8-Napthyridin-2-yl)-4-oxo-6-methyl-4,5,6,7-tetahydro-1H-indole-3-carboxamide]",0.004 µM
6,"CC1CC(=O)c2c(C(=O)Nc3ccc4ccccc4n3)c[nH]c2C1 (stereo not shown) [Compound 10, N-(2-Quinolinyl)-4-oxo-6-methyl-4,5,6,7-tetrahydro-1H-indole-3-carboxamide]",0.012 µM

# Test system: not given
# Assay: not given
# Conditions: not given
row,melting point,Compound
1,278 to 279 °C,"CC1CC(=O)c2c(C(=O)Nc3ccccc3)c[nH]c2C1 (stereo not shown) [Compound 4, N-Phenyl-4-oxo-6-methyl-4,5,6,7-tetraydro-1H-indole-3-carboxamide]"
2,389 to 390 °C,"CC1(C)CC(=O)c2c(C(=O)Nc3ccc4cccnc4n3)c[nH]c2C1 [Compound 8, N-(1,8-Napthyridin-2yl)-4-oxo-6,6-dimethyl-4,5,6,7-tetrahydro-1H-indole-3-carboxamide]"
3,258 to 260 °C,"Cc1ccc(NC(=O)c2c[nH]c3c2C(=O)CC(C)C3)c(O)c1 (stereo not shown) [Example 3(dd), N-(2-Hydroxy-4-methylphenyl)-4-oxo-6-methyl-4,5,6,7-tetrahydro-1H-indole-3-carboxamide]"
4,213 to 215 °C,"COc1ccc(NC(=O)c2c[nH]c3c2C(=O)CC(C)(C)C3)c(F)c1 [Example 3(i), N-(2-Fluoro-4-methoxyphenyl)-4-oxo-6,6-dimethyl-4,5,6,7-tetrahydro-1H-indole-3-carboxamide]"
5,225 to 227 °C,"CC1CC(=O)c2c(C(=O)Nc3cccnc3)c[nH]c2C1 (stereo not shown) [Example 3(ll), N-(3-Pyridyl)-4-oxo-6-methyl-4,5,6,7-tetrahydro-1H-indole-3-carboxamide]"
6,280 to 290 °C,"CC1CC(=O)c2c(C(=O)Nc3ccncc3)c[nH]c2C1 (stereo not shown) [Example 3(mm), N-(4-Pyridyl)-4-oxo-6-methyl-4,5,6,7-tetrahydro-1H-indole-3-carboxamide]"
7,262 to 264 °C,"CC1CC(=O)c2c(C(=O)Nc3ccc(F)cc3)c[nH]c2C1 (stereo not shown) [Example 3(t), N-(4-Fluorophenyl)-4-oxo-6-methyl-4,5,6,7-tetrahydro-1H-indole-3-carboxamide]"

# More lines, now with the values behind:
row,Compound,melting point
1,"CC1CC(=O)c2c(C(=O)Nc3ccccc3F)c[nH]c2C1 (stereo not shown) [Compound 5, N-(2-Fluorophenyl)-4-oxo-6-methyl-4,5,6,7-tetrahydro-1H-indole-3-carboxamide]",264 to 265 °C
2,"COc1ccc(NC(=O)c2c[nH]c3c2C(=O)CC(C)C3)c(F)c1 (stereo not shown) [Compound 6, N-(2-Fluoro-4-methoxyphenyl)-4-oxo-6-methyl-4,5,6,7-tetrahydro-1H-indole-3-carboxamide]",217 to 219 °C
3,"CC1CC(=O)c2c(C(=O)Nc3ccc4ccccc4n3)c[nH]c2C1 (stereo not shown) [Compound 10, N-(2-Quinolinyl)-4-oxo-6-methyl-4,5,6,7-tetrahydro-1H-indole-3-carboxamide]",273 to 275 °C
4,"CC1(C)CC(=O)c2c(C(=O)Nc3cccc(F)c3)c[nH]c2C1 [Example 3(b), N-(3-Fluorophenyl)-4-oxo-6,6-dimethyl-4,5,6,7-tetrahydro-1H-indole-3-carboxamide]",259 to 261 °C
5,"CCOc1ccc(NC(=O)c2c[nH]c3c2C(=O)CC(C)C3)c(F)c1 (stereo not shown) [Example 3(bb), N-(2-Fluoro-4-ethoxyphenyl)-4-oxo-6-methyl-4,5,6,7-tetrahydro-1H-indole-3-carboxamide]",224 to 225 °C
6,"CC1(C)CC(=O)c2c(C(=O)Nc3ccc(F)cc3)c[nH]c2C1 [Example 3(c), N-(4-Fluorophenyl)-4-oxo-6,6-dimethyl-4,5,6,7-tetrahydro-1H-indole-3-carboxamide]",268 to 270 °C
7,"CC1CC(=O)c2c(C(=O)Nc3ccc(O)c(O)c3)c[nH]c2C1 (stereo not shown) [Example 3(cc), N-(3,4-Dihydroxyphenyl)-4-oxo-6-methyl-4,5,6,7-tetrahydro-1H-indole-3-carboxamide]",267 to 269 °C
8,"COc1ccc(NC(=O)c2c[nH]c3c2C(=O)CC(C)(C)C3)c(O)c1 [Example 3(g), N-(2-Hydroxy-4-methoxyphenyl)-4-oxo-6,6-dimethyl-4,5,6,7-tetrahydro-1H-indole-3-carboxamide]",190 to 192 °C
9,"COc1ccc(NC(=O)c2c[nH]c3c2C(=O)CC(C)(C)C3)cc1O [Example 3(h), N-(3-Hydroxy-4-methoxyphenyl)-4-oxo-6,6-dimethyl-4,5,6,7-tetrahydro-1H-indole-3-carboxamide]",282 to 284 °C
10,"CC1(C)CC(=O)c2c(C(=O)Nc3cccnc3)c[nH]c2C1 [Example 3(hh), N-(3-Pyridyl)-4-oxo-6,6-dimethyl-4,5,6,7-tetrahydro-1H-indole-3-carboxamide]",237 to 239 °C
11,"COc1ccncc1NC(=O)c1c[nH]c2c1C(=O)CC(C)(C)C2 [Example 3(ii), N-(4-Methoxy-3-pyridyl)-4-oxo-6,6-dimethyl-4,5,6,7-tetrahydro-1H-indole-3-carboxamide]",217 to 218 °C
12,"CC1(C)CC(=O)c2c(C(=O)Nc3ccc(O)cc3F)c[nH]c2C1 [Example 3(l), N-(2-Fluoro-4-hydroxyphenyl)-4-oxo-6,6-dimethyl-4,5,6,7-tetrahydro-1H-indole-3-carboxamide]",225 to 227 °C
13,"CC1CC(=O)c2c(C(=O)Nc3cccc(F)c3)c[nH]c2C1 (stereo not shown) [Example 3(s), N-(3-Fluorophenyl)-4-oxo-6-methyl-4,5,6,7-tetrahydro-1H-indole-3-carboxamide]",302 to 303 °C
14,"COc1cccc(NC(=O)c2c[nH]c3c2C(=O)CC(C)C3)c1 (stereo not shown) [Example 3(u), N-(3-Methoxyphenyl)-4-oxo-6-methyl-4,5,6,7-tetrahydro-1H-indole-3-carboxamide]",234 to 235 °C
15,"CC1CC(=O)c2c(C(=O)Nc3ccc(O)cc3)c[nH]c2C1 (stereo not shown) [Example 3(v), N-(4-Hydroxyphenyl)-4oxo-6-methyl-4,5,6,7-tetrahydro-1H-indole-3-carboxamide]",320 °C
16,"COc1ccc(NC(=O)c2c[nH]c3c2C(=O)CC(C)C3)c(O)c1 (stereo not shown) [Example 3(x), N-(2-Hydroxy-4-methoxyphenyl)-4-oxo-6methyl-4,5,6,7-tetrahydro-1H-indole-3-carboxamide]",236 to 238 °C
17,"COc1ccc(NC(=O)c2c[nH]c3c2C(=O)CC(C)C3)cc1 (stereo not shown) [Example 3(y), N-(4-Methoxyphenyl)-4-oxo-6-methyl-4,5,6,7-tetrahydro-1H-indole-3-carboxamide]",260 to 261 °C
